Data as given in US10774074B2, “2-(1-heteroarylpiperazin-4-yl)methyl-1,4-benzodioxane derivatives as alpha2C antagonists” (ORION CORPORATION, priority 2015, dated 2020).
pIC50: −log10 of the molar value. Counter-ions that a name gives are not always drawn. Each block holds one compound with its values, some of them ahead of it.

Experiments:
human alpha2A receptors = target: T1, human alpha2A receptors (Homo sapiens, UniProt P08913); test: Determination of alpha2A antagonistic activity in vitro (FLIPR calcium assay, CHO cells); type: cell-based; details: for Kb: Kb calculated with the Cheng-Prusoff equation from IC50, adrenaline as agonist, CHO cells, human alpha2A, read-out: Alpha 2A Adrenaline Kb; for pIC50: antagonism of adrenaline stimulation, CHO cells stably transfected with human alpha2A receptor and Gα16, intracellular calcium (FLIPR), read-out: Alpha 2A Adrenaline IC50
T1 construct: host or cells: CHO cells, cotransfected with pCEP-Gα16
T1 sequence (P08913 1-465): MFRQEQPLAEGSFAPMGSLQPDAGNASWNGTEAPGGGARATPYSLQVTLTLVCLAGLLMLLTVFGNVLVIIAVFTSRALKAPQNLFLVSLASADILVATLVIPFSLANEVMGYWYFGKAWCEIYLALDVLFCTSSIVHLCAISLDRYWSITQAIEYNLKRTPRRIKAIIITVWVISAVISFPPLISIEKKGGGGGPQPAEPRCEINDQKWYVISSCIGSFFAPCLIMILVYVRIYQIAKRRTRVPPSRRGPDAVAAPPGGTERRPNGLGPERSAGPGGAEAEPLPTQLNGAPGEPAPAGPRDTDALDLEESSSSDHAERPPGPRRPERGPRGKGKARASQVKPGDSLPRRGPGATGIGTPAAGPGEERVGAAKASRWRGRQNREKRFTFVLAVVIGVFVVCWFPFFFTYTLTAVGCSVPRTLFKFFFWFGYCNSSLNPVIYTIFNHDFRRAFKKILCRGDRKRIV
Method: (§1) EXPERIMENT 1: Determination of alpha2A and alpha2C Antagonistic Activity In Vitro
(§2) Chinese hamster ovary (CHO) cells stably transfected with human alpha2A or alpha2C receptors (University of Turku, Finland) were cotransfected with the expression vector pCEP-Gα16 (Molecular Devices, CA, USA) were used in this experiment. The cells were maintained at 37° C. in a 5% CO2/95% air atmosphere. The cells were cultured in HAM F-12 medium supplemented with 10% FCS, 25 mM HEPES, 100 IU/ml penicillin, 100 µg/ml streptomycin, 500 μg/ml geneticin and 240 μg/ml hygromycin B. The cells were subcultured twice weekly with 0.25% trypsin and 1 mM EDTA. The subculture ratio was 1:5-1:20. The growth medium was changed every 2 or 3 days. All cell culture reagents were from Gibco. The day before the experiment the cells were plated into black-walled, clear bottom 384-well plates at a density of 10,000 cells/well.
(§3) The growth medium was removed and the cells were incubated with the test compounds and the FLIPR Calcium 6 Assay reagent (Molecular Devices, CA, USA) for 2 h at 37° C. in dark. The test compounds (concentrations in cells 100 pM-10 μM) were dissolved in Probenecid-Ringer consisting of 150 mM NaCl, 3 mM KCl, 1.2 mM MgCl2, 1 mM CaCl2, 5 mM glucose, 20 mM HEPES and 2.5 mM probenecid (pH 7.4 adjusted with 1.0 M NaOH). The osmolarity was adjusted to 322 milliosmoles with Osmostat® OM-6020 osmometer (DIC Kyoto Daiichi Kagagu Co. Ltd, Japan). […] All experiments were performed at 37° C. For agonism measurements the test compounds dissolved in Probenecid-Ringer were applied by FLIPR Tetra at 15 s time point. In order to determine antagonism, the cells were stimulated either with 100 nM adrenaline or noradrenaline and the test compounds were added to the cells 2 h before the experiment with the FLIPR Calcium 6 Assay reagent. […] Typically, there were four replicates at each concentration and six different dose levels. For example, if the number of plates from which results were obtained was three, 72 (4*6*3) wells were thus measured to construct dose-response relationship. The samples were excited at 485 nm and emission was detected at 525 nm with a 515 nm cut-off filter. The minimum fluorescence value subtracted from the maximum value for each well was used in the calculations. ScreenWorks version 4.0 software was used for analyzing the results. Fitting of the antagonist dose-response results was performed with the free Hill equation and the IC50 values were fitted with IDBS XE software using model 200: y=(A+(B/(1+((x/C)^D)))), where A is the curve maximum, B the curve minimum and C equals the EC50 value. D is slope factor (Hill). Kb was calculated with the Cheng-Prusoff equation Kb=A/((B/C)+1), where A is the IC50 of antagonist, B the concentration of agonist and C the EC50 of the agonist.

human alpha2C receptors = target: T2, human alpha2C receptors (Homo sapiens, UniProt P18825); test: Determination of alpha2C antagonistic activity in vitro (FLIPR calcium assay, CHO cells); type: cell-based; details: for Kb: Kb calculated with the Cheng-Prusoff equation from IC50, adrenaline as agonist, CHO cells, human alpha2C, read-out: Alpha 2C Adrenaline Kb; for pIC50: antagonism of adrenaline stimulation, CHO cells stably transfected with human alpha2C receptor and Gα16, intracellular calcium (FLIPR), read-out: Alpha 2C Adrenaline IC50
T2 construct: host or cells: CHO cells, cotransfected with pCEP-Gα16
T2 sequence (P18825 1-462): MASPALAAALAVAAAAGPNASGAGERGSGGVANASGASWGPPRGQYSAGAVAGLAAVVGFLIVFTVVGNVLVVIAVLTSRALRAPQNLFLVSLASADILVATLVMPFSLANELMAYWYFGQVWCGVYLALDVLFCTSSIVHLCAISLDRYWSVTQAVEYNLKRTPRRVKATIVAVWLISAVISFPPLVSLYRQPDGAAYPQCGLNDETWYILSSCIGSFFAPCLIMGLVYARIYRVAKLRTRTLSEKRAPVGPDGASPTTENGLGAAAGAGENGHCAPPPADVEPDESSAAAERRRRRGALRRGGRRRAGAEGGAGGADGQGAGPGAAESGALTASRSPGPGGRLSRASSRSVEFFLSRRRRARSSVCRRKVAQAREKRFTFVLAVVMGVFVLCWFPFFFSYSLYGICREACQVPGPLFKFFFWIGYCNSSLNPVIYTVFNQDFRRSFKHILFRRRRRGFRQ
Method: as §1, §2, §3

Compound: CN(C)C(=O)c1nsnc1N1CCN(C[C@H]2COc3ccccc3O2)CC1 [Compound of example 34, (S)-4-(4-((2,3-Dihydrobenzo[b][1,4]dioxin-2-yl)methyl)piperazin-1-yl)-N,N-dimethyl-1,2,5-thiadiazole-3-carboxamide]
Kb (human alpha2A receptors): > 449 nM | pIC50 (human alpha2A receptors): < 5.00 | Kb (human alpha2C receptors): 0.92 nM | pIC50 (human alpha2C receptors): 10.05

Compound: c1ccc(COc2ncccc2Nc2nsnc2N2CCN(C[C@H]3COc4ccccc4O3)CC2)cc1 [Compound of example 37, (S)—N-(2-(Benzyloxy)pyridin-3-yl)-4-(4-((2,3-dihydrobenzo[b][1,4]-dioxin-2-yl)methyl)piperazin-1-yl)-1,2,5-thiadiazol-3-amine hydrochloride]
Kb (human alpha2A receptors): > 449 nM | pIC50 (human alpha2A receptors): < 5.00 | Kb (human alpha2C receptors): 73.1 nM | pIC50 (human alpha2C receptors): 8.13

The next compounds have a higher pIC50 (human alpha2A receptors) than those just listed; values first:

Kb (human alpha2A receptors): 298 nM | pIC50 (human alpha2A receptors): 5.18 | Kb (human alpha2C receptors): 135 nM | pIC50 (human alpha2C receptors): 7.87
Compound: c1ccc2c(c1)OC[C@H](CN1CCN(c3nsc4cccnc34)CC1)O2 [Compound of example 36, (S)-3-(4-((2,3-Dihydrobenzo[b][1,4]dioxin-2-yl)methyl)piperazin-1-yl)isothiazolo[4,5-b]pyridine hydrochloride]

Kb (human alpha2A receptors): 149 nM | pIC50 (human alpha2A receptors): 5.48 | Kb (human alpha2C receptors): 2.28 nM | pIC50 (human alpha2C receptors): 9.64
Compound: Cc1cc(N2CCN(C[C@H]3COc4ccccc4O3)CC2)n(-c2ccccn2)n1 [Compound of example 38, (S)-1-((2,3-Dihydrobenzo[b][1,4]dioxin-2-yl)methyl)-4-(3-methyl-1-(pyridin-2-yl)-1H-pyrazol-5-yl)piperazine]

Kb (human alpha2A receptors): 82 nM | pIC50 (human alpha2A receptors): 5.74 | Kb (human alpha2C receptors): 0.29 nM | pIC50 (human alpha2C receptors): 10.52
Compound: COc1cccc(-n2nc(C)cc2N2CCN(C[C@H]3COc4ccccc4O3)CC2)n1 [Compound of example 39, (S)-1-((2,3-Dihydrobenzo[b][1,4]dioxin-2-yl)methyl)-4-(1-(6-methoxypyridin-2-yl)-3-methyl-1H-pyrazol-5-yl)piperazine]

Kb (human alpha2A receptors): 100 nM | pIC50 (human alpha2A receptors): 5.65 | Kb (human alpha2C receptors): 2.57 nM | pIC50 (human alpha2C receptors): 9.59
Compound: Cc1cccc(-n2nc(C)cc2N2CCN(C[C@H]3COc4ccccc4O3)CC2)n1 [Compound of example 40, (S)-1-((2,3-Dihydrobenzo[b][1,4]dioxin-2-yl)methyl)-4-(3-methyl-1-(6-methylpyridin-2-yl)-1H-pyrazol-5-yl)piperazine]
